In the NIST ThermoML archive (doi:10.1021/je300388b):
Numbers after ± are expanded uncertainties.

Assay: xn = mol fraction of the nth substance listed
Conditions: Liquid

CCCCCCCCCC [decane] + O=C=O
mass density (323.34 K, 11990 kPa, x2 = 0.869): 755.53 ± 0.55 kg/m3 | mass density (323.38 K, 14000 kPa, x2 = 0.869): 767.56 ± 0.55 kg/m3 | mass density (333.09 K, 10020 kPa, x2 = 0.71): 736.44 ± 0.54 kg/m3 | mass density (333.1 K, 11960 kPa, x2 = 0.71): 741.69 ± 0.54 kg/m3 | mass density (333.12 K, 8090 kPa, x2 = 0.71): 730.25 ± 0.54 kg/m3 | mass density (333.12 K, 17970 kPa, x2 = 0.4698): 735.23 ± 0.54 kg/m3 | mass density (333.12 K, 18050 kPa, x2 = 0.71): 756.13 ± 0.54 kg/m3 | mass density (333.13 K, 8020 kPa, x2 = 0.2361): 715.58 ± 0.53 kg/m3 | mass density (333.13 K, 11990 kPa, x2 = 0.4698): 726.89 ± 0.54 kg/m3 | mass density (333.13 K, 14000 kPa, x2 = 0.4698): 729.82 ± 0.54 kg/m3 | mass density (333.13 K, 14030 kPa, x2 = 0.2361): 721.58 ± 0.54 kg/m3 | mass density (333.13 K, 14050 kPa, x2 = 0.71): 746.85 ± 0.54 kg/m3 | mass density (333.13 K, 15960 kPa, x2 = 0.4698): 732.55 ± 0.54 kg/m3 | mass density (333.13 K, 16020 kPa, x2 = 0.2361): 723.45 ± 0.54 kg/m3 | mass density (333.13 K, 19020 kPa, x2 = 0.2361): 726.15 ± 0.54 kg/m3 | mass density (333.14 K, 9930 kPa, x2 = 0.4698): 723.71 ± 0.54 kg/m3 | mass density (333.15 K, 10020 kPa, x2 = 0.2361): 717.65 ± 0.53 kg/m3 | mass density (333.15 K, 12030 kPa, x2 = 0.2361): 719.64 ± 0.54 kg/m3 | mass density (333.15 K, 16040 kPa, x2 = 0.71): 751.6 ± 0.54 kg/m3 | mass density (333.15 K, 18020 kPa, x2 = 0.2361): 725.24 ± 0.54 kg/m3 | mass density (333.19 K, 7980 kPa, x2 = 0.4698): 720.48 ± 0.54 kg/m3 | mass density (333.19 K, 15930 kPa, x2 = 0.869): 754.21 ± 0.54 kg/m3 | mass density (333.2 K, 18080 kPa, x2 = 0.869): 762.91 ± 0.54 kg/m3 | mass density (333.22 K, 14070 kPa, x2 = 0.869): 745.06 ± 0.54 kg/m3 | mass density (343.02 K, 10240 kPa, x2 = 0.71): 720.54 ± 0.54 kg/m3 | mass density (343.02 K, 12280 kPa, x2 = 0.71): 726.49 ± 0.54 kg/m3 | mass density (343.1 K, 12070 kPa, x2 = 0.4698): 716.06 ± 0.53 kg/m3 | mass density (343.11 K, 16090 kPa, x2 = 0.4698): 722.46 ± 0.54 kg/m3 | mass density (343.11 K, 19120 kPa, x2 = 0.4698): 726.87 ± 0.54 kg/m3 | mass density (343.12 K, 14000 kPa, x2 = 0.71): 730.99 ± 0.54 kg/m3 | mass density (343.13 K, 8070 kPa, x2 = 0.4698): 708.84 ± 0.53 kg/m3 | mass density (343.13 K, 16030 kPa, x2 = 0.71): 736.12 ± 0.54 kg/m3 | mass density (343.13 K, 18000 kPa, x2 = 0.71): 741.08 ± 0.54 kg/m3 | mass density (343.14 K, 18000 kPa, x2 = 0.4698): 725.25 ± 0.54 kg/m3 | mass density (343.16 K, 18050 kPa, x2 = 0.869): 743.75 ± 0.54 kg/m3 | mass density (343.18 K, 9930 kPa, x2 = 0.4698): 712.24 ± 0.53 kg/m3 | mass density (343.19 K, 13920 kPa, x2 = 0.4698): 719 ± 0.54 kg/m3 | mass density (343.21 K, 12010 kPa, x2 = 0.2361): 711.78 ± 0.53 kg/m3 | mass density (343.23 K, 16060 kPa, x2 = 0.869): 735.77 ± 0.54 kg/m3 | mass density (343.23 K, 18020 kPa, x2 = 0.2361): 718.14 ± 0.53 kg/m3 | mass density (343.24 K, 14010 kPa, x2 = 0.2361): 713.97 ± 0.53 kg/m3 | mass density (343.24 K, 16010 kPa, x2 = 0.2361): 716.11 ± 0.53 kg/m3 | mass density (343.25 K, 8010 kPa, x2 = 0.2361): 707.17 ± 0.53 kg/m3 | mass density (343.25 K, 10010 kPa, x2 = 0.2361): 709.51 ± 0.53 kg/m3 | mass density (343.26 K, 19020 kPa, x2 = 0.2361): 719.17 ± 0.54 kg/m3 | mass density (352.97 K, 9880 kPa, x2 = 0.71): 706.61 ± 0.53 kg/m3 | mass density (352.99 K, 18040 kPa, x2 = 0.869): 719.9 ± 0.54 kg/m3 | mass density (353.01 K, 11990 kPa, x2 = 0.71): 711.36 ± 0.53 kg/m3 | mass density (353.06 K, 16040 kPa, x2 = 0.4698): 711.93 ± 0.53 kg/m3 | mass density (353.06 K, 19020 kPa, x2 = 0.2361): 711.31 ± 0.53 kg/m3 | mass density (353.09 K, 14010 kPa, x2 = 0.4698): 708.37 ± 0.53 kg/m3 | mass density (353.09 K, 18080 kPa, x2 = 0.4698): 715.25 ± 0.53 kg/m3 | mass density (353.1 K, 12020 kPa, x2 = 0.2361): 703.37 ± 0.53 kg/m3 | mass density (353.11 K, 10030 kPa, x2 = 0.2361): 700.96 ± 0.53 kg/m3 | mass density (353.11 K, 14010 kPa, x2 = 0.2361): 705.7 ± 0.53 kg/m3 | mass density (353.12 K, 10090 kPa, x2 = 0.4698): 700.82 ± 0.53 kg/m3 | mass density (353.12 K, 17940 kPa, x2 = 0.71): 725.1 ± 0.54 kg/m3 | mass density (353.12 K, 18020 kPa, x2 = 0.2361): 710.21 ± 0.53 kg/m3 | mass density (353.12 K, 19060 kPa, x2 = 0.4698): 716.77 ± 0.53 kg/m3 | mass density (353.13 K, 8010 kPa, x2 = 0.2361): 698.4 ± 0.53 kg/m3 | mass density (353.13 K, 8040 kPa, x2 = 0.4698): 696.42 ± 0.53 kg/m3 | mass density (353.13 K, 12050 kPa, x2 = 0.4698): 704.69 ± 0.53 kg/m3 | mass density (353.13 K, 16020 kPa, x2 = 0.2361): 707.98 ± 0.53 kg/m3 | mass density (353.14 K, 15980 kPa, x2 = 0.71): 719.92 ± 0.54 kg/m3 | mass density (353.26 K, 14130 kPa, x2 = 0.71): 715.78 ± 0.54 kg/m3 | mass density (362.92 K, 12050 kPa, x2 = 0.71): 698.95 ± 0.53 kg/m3 | mass density (362.99 K, 18090 kPa, x2 = 0.71): 712.19 ± 0.54 kg/m3 | mass density (363.08 K, 16050 kPa, x2 = 0.71): 707.18 ± 0.53 kg/m3 | mass density (363.28 K, 14100 kPa, x2 = 0.71): 702.89 ± 0.53 kg/m3
